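Cultured in 96-well plates, cells were exposed to test compound for 48 hours across five concentrations. The concentration for 50% growth inhibition is given as GI50. At the TGI there is no net growth.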 Where a SMILES comes first, the peptide text is derived from it. [ ]: non-standard residue; d: D form. Phe(ol) = N[C@H](CO)Cc1ccccc1; dIva = CC[C@@](C)(N)C(=O)O; Aib = CC(C)(N)C(=O)O
Legend:
Assay in all cases: NCI anticancer screen, dose series, 48 h
NCI-H23 lung = test system: NCI-H23 lung
OVCAR-5 ovarian = test system: OVCAR-5 ovarian
PC-3 prostate = test system: PC-3 prostate
SK-MEL-28 melanoma = test system: SK-MEL-28 melanoma
SNB-75 CNS = test system: SNB-75 CNS
UACC-257 melanoma = test system: UACC-257 melanoma
NCI-H460 lung = test system: NCI-H460 lung
MCF7 breast = test system: MCF7 breast
HS 578T breast = test system: HS 578T breast
786-0 renal = test system: 786-0 renal
HOP-62 NSCLC = test system: HOP-62 NSCLC
KM12 colon = test system: KM12 colon
CCRF-CEM leukemia = test system: CCRF-CEM leukemia
MDA-MB-435 = test system: MDA-MB-435
EKVX NSCLC = test system: EKVX NSCLC
NCI/ADR-RES ovarian = test system: NCI/ADR-RES ovarian
UACC-62 melanoma = test system: UACC-62 melanoma
SF-539 CNS = test system: SF-539 CNS
NCI-H522 lung = test system: NCI-H522 lung
RPMI-8226 leukemia = test system: RPMI-8226 leukemia
SF-268 CNS = test system: SF-268 CNS
COLO 205 colon = test system: COLO 205 colon
A549 NSCLC = test system: A549 NSCLC
SK-OV-3 ovarian = test system: SK-OV-3 ovarian
ACHN renal = test system: ACHN renal
SF-295 CNS = test system: SF-295 CNS
UO-31 renal = test system: UO-31 renal
HCC-2998 colon = test system: HCC-2998 colon
OVCAR-3 ovarian = test system: OVCAR-3 ovarian
HL-60(TB) leukemia = test system: HL-60(TB) leukemia
SW-620 colon = test system: SW-620 colon
SR leukemia = test system: SR leukemia
MALME-3M melanoma = test system: MALME-3M melanoma
RXF 393 renal = test system: RXF 393 renal
NCI-H226 lung = test system: NCI-H226 lung
HCT-15 colon = test system: HCT-15 colon
HOP-92 NSCLC = test system: HOP-92 NSCLC
LOX IMVI melanoma = test system: LOX IMVI melanoma
OVCAR-4 ovarian = test system: OVCAR-4 ovarian
U251 CNS = test system: U251 CNS
SK-MEL-2 melanoma = test system: SK-MEL-2 melanoma
M14 melanoma = test system: M14 melanoma
SK-MEL-5 melanoma = test system: SK-MEL-5 melanoma
T-47D breast = test system: T-47D breast
SNB-19 CNS = test system: SNB-19 CNS
TK-10 renal = test system: TK-10 renal
A498 renal = test system: A498 renal
MDA-MB-231 breast = test system: MDA-MB-231 breast
K-562 leukemia = test system: K-562 leukemia
MOLT-4 leukemia = test system: MOLT-4 leukemia
SN12C renal = test system: SN12C renal
HT29 colon = test system: HT29 colon
HCT-116 colon = test system: HCT-116 colon
IGROV1 ovarian = test system: IGROV1 ovarian
BT-549 breast = test system: BT-549 breast
OVCAR-8 ovarian = test system: OVCAR-8 ovarian

CC[C@@](C)(NC(=O)C(C)(C)NC(=O)[C@@H](NC(=O)[C@@H]1CCCN1C(=O)C(C)(C)NC(=O)[C@H](CC(C)C)NC(=O)CNC(=O)C(C)(C)NC(=O)[C@@H](NC(=O)C(C)(C)NC(=O)[C@H](CCC(N)=O)NC(=O)[C@H](C)NC(=O)C(C)(C)NC(=O)[C@H](C)NC(=O)C(C)(C)NC(=O)[C@@H]1CCCN1C(=O)C(C)(C)NC(C)=O)C(C)C)C(C)C)C(=O)N[C@@H](CCC(N)=O)C(=O)N[C@@H](CCC(N)=O)C(=O)N[C@H](CO)Cc1ccccc1 (Ac-[Aib]P[Aib]A[Aib]AQ[Aib]V[Aib]GL[Aib]PV[Aib][dIva]QQ[Phe(ol)])
GI50 (NCI-H23 lung): 1000 nM | TGI (NCI-H23 lung): > 4250 nM | GI50 (OVCAR-5 ovarian): 1640 nM | TGI (OVCAR-5 ovarian): > 4250 nM | GI50 (PC-3 prostate): 1660 nM | TGI (PC-3 prostate): > 4250 nM | GI50 (SK-MEL-28 melanoma): 1660 nM | TGI (SK-MEL-28 melanoma): > 4250 nM | GI50 (SNB-75 CNS): 1150 nM | TGI (SNB-75 CNS): > 4250 nM | GI50 (UACC-257 melanoma): 1210 nM | TGI (UACC-257 melanoma): > 4250 nM | GI50 (NCI-H460 lung): 1520 nM | TGI (NCI-H460 lung): > 4250 nM | GI50 (MCF7 breast): 215 nM | TGI (MCF7 breast): > 4250 nM | GI50 (HS 578T breast): 2480 nM | TGI (HS 578T breast): > 4250 nM | GI50 (786-0 renal): > 4250 nM | TGI (786-0 renal): > 4250 nM | GI50 (HOP-62 NSCLC): > 4250 nM | TGI (HOP-62 NSCLC): > 4250 nM | GI50 (KM12 colon): 1470 nM | TGI (KM12 colon): > 4250 nM | GI50 (CCRF-CEM leukemia): 2930 nM | TGI (CCRF-CEM leukemia): > 4250 nM | GI50 (MDA-MB-435): 1160 nM | TGI (MDA-MB-435): > 4250 nM | GI50 (EKVX NSCLC): > 4250 nM | TGI (EKVX NSCLC): > 4250 nM | GI50 (NCI/ADR-RES ovarian): > 4250 nM | TGI (NCI/ADR-RES ovarian): > 4250 nM | GI50 (UACC-62 melanoma): 1730 nM | TGI (UACC-62 melanoma): > 4250 nM | GI50 (SF-539 CNS): 1530 nM | TGI (SF-539 CNS): > 4250 nM | GI50 (NCI-H522 lung): 873 nM | TGI (NCI-H522 lung): 4030 nM | GI50 (RPMI-8226 leukemia): 265 nM | TGI (RPMI-8226 leukemia): 2410 nM | GI50 (SF-268 CNS): 1630 nM | TGI (SF-268 CNS): > 4250 nM | GI50 (COLO 205 colon): 1290 nM | TGI (COLO 205 colon): > 4250 nM | GI50 (A549 NSCLC): 2390 nM | TGI (A549 NSCLC): > 4250 nM | GI50 (SK-OV-3 ovarian): 1550 nM | TGI (SK-OV-3 ovarian): > 4250 nM | GI50 (ACHN renal): > 4250 nM | TGI (ACHN renal): > 4250 nM | GI50 (SF-295 CNS): > 4250 nM | TGI (SF-295 CNS): > 4250 nM | GI50 (UO-31 renal): > 4250 nM | TGI (UO-31 renal): > 4250 nM | GI50 (HCC-2998 colon): 1960 nM | TGI (HCC-2998 colon): > 4250 nM | GI50 (OVCAR-3 ovarian): 1140 nM | TGI (OVCAR-3 ovarian): > 4250 nM | GI50 (HL-60(TB) leukemia): 960 nM | TGI (HL-60(TB) leukemia): 2080 nM | GI50 (SW-620 colon): 3340 nM | TGI (SW-620 colon): > 4250 nM | GI50 (SR leukemia): 1410 nM | TGI (SR leukemia): > 4250 nM | GI50 (MALME-3M melanoma): 856 nM | TGI (MALME-3M melanoma): 2140 nM | GI50 (RXF 393 renal): 964 nM | TGI (RXF 393 renal): 3110 nM | GI50 (NCI-H226 lung): > 4250 nM | TGI (NCI-H226 lung): > 4250 nM | GI50 (HCT-15 colon): > 4250 nM | TGI (HCT-15 colon): > 4250 nM | GI50 (HOP-92 NSCLC): 1060 nM | TGI (HOP-92 NSCLC): 2950 nM | GI50 (LOX IMVI melanoma): 1360 nM | TGI (LOX IMVI melanoma): > 4250 nM | GI50 (OVCAR-4 ovarian): 1570 nM | TGI (OVCAR-4 ovarian): > 4250 nM | GI50 (U251 CNS): 1610 nM | TGI (U251 CNS): > 4250 nM | GI50 (SK-MEL-2 melanoma): 1370 nM | TGI (SK-MEL-2 melanoma): > 4250 nM | GI50 (M14 melanoma): > 4250 nM | TGI (M14 melanoma): > 4250 nM | GI50 (SK-MEL-5 melanoma): 1170 nM | TGI (SK-MEL-5 melanoma): 3620 nM | GI50 (T-47D breast): 974 nM | TGI (T-47D breast): 4020 nM | GI50 (SNB-19 CNS): 1270 nM | TGI (SNB-19 CNS): > 4250 nM | GI50 (TK-10 renal): > 4250 nM | TGI (TK-10 renal): > 4250 nM | GI50 (A498 renal): > 4250 nM | TGI (A498 renal): > 4250 nM | GI50 (MDA-MB-231 breast): 1430 nM | TGI (MDA-MB-231 breast): > 4250 nM | GI50 (K-562 leukemia): 2400 nM | TGI (K-562 leukemia): > 4250 nM | GI50 (MOLT-4 leukemia): 1470 nM | TGI (MOLT-4 leukemia): > 4250 nM | GI50 (SN12C renal): 789 nM | TGI (SN12C renal): > 4250 nM | GI50 (HT29 colon): 1720 nM | TGI (HT29 colon): > 4250 nM | GI50 (HCT-116 colon): 1750 nM | TGI (HCT-116 colon): > 4250 nM | GI50 (IGROV1 ovarian): 2510 nM | TGI (IGROV1 ovarian): > 4250 nM | GI50 (BT-549 breast): 966 nM | TGI (BT-549 breast): 2670 nM | GI50 (OVCAR-8 ovarian): > 4250 nM | TGI (OVCAR-8 ovarian): > 4250 nM

Reference: PubChem BioAssay (NCI)
